Patent EP0973746B1, “SUBSTITUTED 3-CYANO QUINOLINES” (Wyeth Holdings Corporation, priority 1997, dated 1998)
pIC50: −log10 of the molar value. In brackets after ≈: the same amount, converted by molar mass. Several values for one entry are separate records, joined by “and”; a condition that tells them apart may be missing. Identical values can stand only once. Like-named read-outs stand apart in the source and are kept apart here.

Legend:
[1] = target: T1, Kinase insert Domain containing Receptor (KDR: the catalytic domain of the VEGF receptor) (Homo sapiens, UniProt P35968); experiment: Inhibition of Kinase insert Domain containing Receptor (KDR); assay type: biochemical; conditions: pH 7.2; radioactive format; read-out: KDR IC50 (converted);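 note: KDR phosphorylating a Glu:Tyr 4:1 copolymer with P32- or P33-labelled ATP, Mg++ and vanadate, read as acid-insoluble radiolabel, compared with compound-free reaction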
T1 construct: KDR: the catalytic domain of the VEGF receptor
T1 sequence (P35968 834-1162 limits assumed): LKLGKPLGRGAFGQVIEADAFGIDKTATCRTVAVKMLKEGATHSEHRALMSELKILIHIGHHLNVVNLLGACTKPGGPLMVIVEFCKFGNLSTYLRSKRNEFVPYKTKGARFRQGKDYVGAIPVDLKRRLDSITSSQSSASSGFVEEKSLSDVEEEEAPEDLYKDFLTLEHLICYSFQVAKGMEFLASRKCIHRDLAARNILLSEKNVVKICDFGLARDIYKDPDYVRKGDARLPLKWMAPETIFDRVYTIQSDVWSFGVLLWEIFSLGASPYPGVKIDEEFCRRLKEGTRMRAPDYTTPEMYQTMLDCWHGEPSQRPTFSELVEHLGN

[2] = target: recombinant human MEK 1 (MAPKK) and recombinant human ERK2 (MAPK); experiment: Mitogen Activated Protein Kinase (MAPK) assay, two component coupled MEK 1 / ERK2; assay type: biochemical; conditions: separate entries for the same compound = evaluated more than one time;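 note: MEK 1-activated ERK2 phosphorylates MBP or Myc peptide with 33P-ATP, filter capture and scintillation counting, inhibitor preincubated with ERK2 30 min at 0 °C, inhibition relative to uninhibited control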
[3] = target: T2, His-tagged cytoplasmic domain of EGFR (Homo sapiens, UniProt P00533); experiment: Inhibition of Epidermal Growth Factor Receptor Kinase (EGF-R) using recombinant enzyme; assay type: biochemical; conditions: recombinant enzyme; RR-SRC peptide; average of the number of tests; read-out: IC50;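 note: radiometric kinase assay measuring radiolabeled phosphate transfer from ATP onto the peptide tyrosine by scintillation counting, control is reaction without compound, background subtracted, IC50 from dose-response curve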
T2 construct: containing the EGFR cDNA encoding amino acids 645 - 1186 preceded by Met-Ala-(His)6; made in house; host or cells: Sf9 cells, recombinant baculovirus vHcEGFR52
T2 sequence (P00533 669-1210): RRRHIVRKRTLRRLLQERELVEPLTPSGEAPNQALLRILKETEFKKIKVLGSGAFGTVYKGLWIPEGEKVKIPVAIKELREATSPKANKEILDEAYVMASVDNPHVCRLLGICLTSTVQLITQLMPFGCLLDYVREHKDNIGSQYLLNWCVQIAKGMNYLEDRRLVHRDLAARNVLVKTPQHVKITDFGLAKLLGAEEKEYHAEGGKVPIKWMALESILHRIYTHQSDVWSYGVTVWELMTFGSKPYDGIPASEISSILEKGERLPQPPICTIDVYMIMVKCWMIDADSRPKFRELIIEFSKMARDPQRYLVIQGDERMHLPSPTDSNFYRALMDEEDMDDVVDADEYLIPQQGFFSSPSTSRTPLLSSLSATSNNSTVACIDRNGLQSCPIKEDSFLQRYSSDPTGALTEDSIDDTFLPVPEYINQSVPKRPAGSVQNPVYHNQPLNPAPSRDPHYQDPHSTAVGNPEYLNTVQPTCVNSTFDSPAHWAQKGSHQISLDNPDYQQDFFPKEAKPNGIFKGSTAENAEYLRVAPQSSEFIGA

SW620 = experiment: Inhibition of cancer cell growth as measured by cell number, SW620; assay type: cell-based, human; conditions: Homo sapiens, SW-620, 48 h, Table 8;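 note: SW620 was included as a cell line with little or no EGFR or HER2/neu expression, in contrast to receptor-overexpressing lines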
Text: (§1) The cell lines were chosen since they overexpressed epidermal growth factor receptor (EGFR) (i.e. A431) or HER2/neu (SKBR3), or had little to no expression of the these receptors (SW620, LOX, MCF7).

MCF7 = experiment: Inhibition of cancer cell growth as measured by cell number, MCF7; assay type: cell-based, human; conditions: Homo sapiens, MCF7, 48 h, Table 8;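 note: MCF7 was included as a line with little or no EGFR or HER2/neu expression, in contrast to the receptor-overexpressing lines of the panel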
Text: as §1

LOX = experiment: Inhibition of cancer cell growth as measured by cell number, LOX; assay type: cell-based, human; conditions: Homo sapiens, LOX, 48 h, Table 8;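 note: LOX cells served as a line with low or absent EGFR and HER2/neu expression, in contrast to receptor-overexpressing lines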
Text: as §1

A431 = experiment: Inhibition of cancer cell growth as measured by cell number, A431; assay type: cell-based, human; conditions: Homo sapiens, A-431, 48 h, Table 8;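 note: human A431 line, picked because it overexpresses epidermal growth factor receptor (EGFR)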
Text: as §1

SKBR3 = experiment: Inhibition of cancer cell growth as measured by cell number, SKBR3; assay type: cell-based, human; conditions: Homo sapiens, Table 8;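 note: SK-BR-3 cells were selected as a line overexpressing HER2/neu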
Text: as §1

[4] = cell number, Sulforhodamine B, 48 hours exposure, read-out: IC50 SW620
[5] = cell number, Sulforhodamine B, 48 hours exposure, read-out: IC50 MCF7
[6] = cell number, Sulforhodamine B, 48 hours exposure, read-out: IC50 LOX
[7] = cell number, Sulforhodamine B, 48 hours exposure, read-out: IC50 A431
[8] = SK-BR-3, cell number, Sulforhodamine B, 48 hours exposure, read-out: IC50 SKBR3

Row | SMILES | pIC50 [2] | pIC50 [3] | IC50 (SW620; [4]) | IC50 (MCF7; [5]) | IC50 (LOX; [6]) | IC50 (A431; [7]) | IC50 (SKBR3; [8]) | IC50 [1] | IC50 (SW620; read-out: IC50 SW620, cell number, Sulforhodamine B, 48 hours exposure) | IC50 (MCF7; read-out: IC50 MCF7, cell number, Sulforhodamine B, 48 hours exposure) | IC50 (LOX; read-out: IC50 LOX, cell number, Sulforhodamine B, 48 hours exposure) | IC50 (A431; read-out: IC50 A431, cell number, Sulforhodamine B, 48 hours exposure) | IC50 (SKBR3; SK-BR-3, 48 h, read-out: IC50 SKBR3, cell number, Sulforhodamine B, 48 hours exposure)
1 | COc1cc2c(Nc3ccc(C)c(O)c3)c(C#N)cnc2c(OC)c1OC [Example 233, 4-(3-Hydroxy-4-methyl-phenylamino)-6,7,8-trimethoxy-quinoline-3-carbonitrile] | 4.10 |  |  |  |  |  |  | > 82.1 µM |  |  |  |  | 
2 | COc1cc2c(Nc3ccc(Cl)cc3F)c(C#N)cnc2c(OC)c1OC [Example 234, 4-(4-Chloro-2-fluoro-phenylamino)-6,7,8-trimethoxy-quinoline-3-carbonitrile] | < 4.00 |  |  |  |  |  |  | > 77.4 µM |  |  |  |  | 
3 | COc1ccc(OC)c2c(Nc3ccc(C)c(O)c3)c(C#N)cnc12 [Example 239, 4-(3-Hydroxy-4-methyl-phenylamino)-5,8-dimethoxy-quinoline-3-carbonitrile] | < 4.00 |  |  |  |  |  |  | > 89.5 µM |  |  |  |  | 
4 | COc1ccc(OC)c2c(Nc3cccc(Br)c3)c(C#N)cnc12 [Example 240, 4-(3-Bromo-phenylamino)-5.8-dimethoxy-quinoline-3-carbonitrile] | 5.00 |  |  |  |  |  |  | > 78.1 µM |  |  |  |  | 
5 | COc1ccc(OC)c2c(Nc3cccc(N(C)C)c3)c(C#N)cnc12 [Example 242, 4-(3-Dimethylamino-phenylamino)-5,8-dimethoxy-quinoline-3-carbonitrile] | 5.00 |  |  |  |  |  |  | > 86.1 µM |  |  |  |  | 
6 | COc1cc2ncc(C#N)c(Nc3ccc(Sc4ccccc4)c(Cl)c3)c2cc1OC [Example 255, 4-[3-Chloro-4-(phenylthio)phenylamino]-6,7-dimethoxy-3-quinolinecarbonitrile] |  | 7.00 |  |  |  |  |  |  | 0.58 µg/mL (≈ 1.29 µM) | 2.85 µg/mL (≈ 6.36 µM) | 0.69 µg/mL (≈ 1.54 µM) | 0.59 µg/mL (≈ 1.32 µM) | 0.35 µg/mL (≈ 0.781 µM)
7 | N#Cc1cnc2ccc(NC(=O)C#CCN3CCOCC3)cc2c1Nc1cccc(Br)c1 [Example 328, N-[4-[(3-Bromophenyl)amino]-3-cyano-6-quinolinyl]-4-morpholino-2-butynamide] | < 4.00 | 8.35 | 0.15 µg/mL (≈ 0.306 µM) | 0.78 µg/mL (≈ 1.59 µM) | 0.33 µg/mL (≈ 0.673 µM) | 0.19 µg/mL (≈ 0.387 µM) | 0.02 µg/mL (≈ 0.0408 µM) |  |  |  |  |  | 
8 | CN(C)CC#CC(=O)Nc1ccc2ncc(C#N)c(Nc3cccc(Br)c3)c2c1 [Example 329, N-[4-[(3-Bromophenyl)amino]-3-cyano-6-quinolinyl]-4-dimethylamino-2-butynamide] | < 4.00 | 9.35 | 0.03 µg/mL (≈ 0.0669 µM) | 0.75 µg/mL (≈ 1.67 µM) | 0.58 µg/mL (≈ 1.29 µM) | 0.22 µg/mL (≈ 0.491 µM) | 0.21 µg/mL (≈ 0.468 µM) |  |  |  |  |  | 
9 | COCC#CC(=O)Nc1ccc2ncc(C#N)c(Nc3cccc(Br)c3)c2c1 [Example 330, N-[4-[(3-Bromophenyl)amino]-3-cyano-6-quinoliny]-4-methoxy-2-butynamide] | < 4.00 | 9.55 | 0.02 µg/mL (≈ 0.0459 µM) | 0.36 µg/mL (≈ 0.827 µM) | 0.02 µg/mL (≈ 0.0459 µM) | 0.05 µg/mL (≈ 0.115 µM) | 0.23 µg/mL (≈ 0.528 µM) |  |  |  |  |  | 

Further lines, with some results ahead:

Row | pIC50 [2] | pIC50 [3] | IC50 (SW620; [4]) | IC50 (MCF7; [5]) | IC50 (LOX; [6]) | IC50 (A431; [7]) | IC50 (SKBR3; [8]) | SMILES | IC50 [1] | IC50 (SW620; read-out: IC50 SW620, cell number, Sulforhodamine B, 48 hours exposure) | IC50 (MCF7; read-out: IC50 MCF7, cell number, Sulforhodamine B, 48 hours exposure) | IC50 (LOX; read-out: IC50 LOX, cell number, Sulforhodamine B, 48 hours exposure) | IC50 (A431; read-out: IC50 A431, cell number, Sulforhodamine B, 48 hours exposure) | IC50 (SKBR3; SK-BR-3, 48 h, read-out: IC50 SKBR3, cell number, Sulforhodamine B, 48 hours exposure)
10 | 4.60 and > 4.30 | 9.05 | 0.44 µg/mL (≈ 1.04 µM) | 54.9 µg/mL (≈ 130 µM) | 0.51 µg/mL (≈ 1.21 µM) | 0.6 µg/mL (≈ 1.42 µM) | 0.08 µg/mL (≈ 0.19 µM) | N#Cc1cnc2ccc(NC(=O)C#CCO)cc2c1Nc1cccc(Br)c1 [Example 332] |  |  |  |  |  | 
11 | 4.74 | 7.00 | 4.1 µg/mL (≈ 9.1 µM) | 7.8 µg/mL (≈ 17.3 µM) | 2.5 µg/mL (≈ 5.55 µM) | 0.5 µg/mL (≈ 1.11 µM) | 0.7 µg/mL (≈ 1.55 µM) | N#Cc1cnc2ccc(NCCCN3CCCC3)cc2c1Nc1cccc(Br)c1 [Example 358, 4-(3-Bromo-phenylamino)-6-(3-pyrrolidin-1-yl-propylamino)-quinoline-3-carbonitrile] |  |  |  |  |  | 
12 | 4.60 | 7.00 | 0.08 µg/mL (≈ 0.261 µM) | 0.8 µg/mL (≈ 2.61 µM) | 0.08 µg/mL (≈ 0.261 µM) | 0.07 µg/mL (≈ 0.228 µM) | 0.06 µg/mL (≈ 0.196 µM) | CSc1cccc(Nc2c(C#N)cnc3ccc(N)cc23)c1 [Example 363, 6-Amino-4-[(3-methylsulfanylphenyl)amino]-3-quinolinecarbonitrile] |  |  |  |  |  | 
13 | 4.40 |  | 73.3 µg/mL (≈ 205 µM) | 3.66 µg/mL (≈ 10.2 µM) | 1.99 µg/mL (≈ 5.57 µM) | 0.46 µg/mL (≈ 1.29 µM) | 2.61 µg/mL (≈ 7.3 µM) | C=CC(=O)Nc1ccc2ncc(C#N)c(Nc3ccc(N(C)C)cc3)c2c1 [Example 392, N-[3-Cyano-4-(4-dimethylaminophenylamino)quinolin-6-yl]acrylamide] |  |  |  |  |  | 
14 | 4.40 |  | 2.25 µg/mL (≈ 6.09 µM) | 4 µg/mL (≈ 10.8 µM) | 0.85 µg/mL (≈ 2.3 µM) | 0.45 µg/mL (≈ 1.22 µM) | 0.84 µg/mL (≈ 2.27 µM) | CC#CC(=O)Nc1ccc2ncc(C#N)c(Nc3cccc(N(C)C)c3)c2c1 [Example 393, But-2-ynoic Acid [3-Cyano-4-(3-dimethylaminophenylamino)quinolin-6-yl]amide] |  |  |  |  |  | 
